{"source": "patent US20100197789A1", "about": "“ANTI-OBESITY AGENT AND USE THEREOF” (National University Corporation Nagoya University, priority 2006, published 2010)", "key": {"[1]": {"system": "db/db mice", "experiment": "Histological study of adipose tissue (weights, fat cell size), db/db mice", "type": "in vivo, mouse", "settings": "after 5 week-administration, 1.1 and 2.7 mg/dl in drinking water", "procedure": "5 week-old male C57BL/KsJ-db/db mice (db/db mice: body weight 19 to 25 g, Japan SLC, Inc.) were purchased and individually fed in tip cages. For the db/db mice, normal pellet diet (CE-2) was administered under free water intake and free food intake. A body weight and a food intake amount over 24 hours were measured every day from the start of feeding. On day 3 after the start of feeding, blood was taken from an orbit after 6 hour-fasting and a blood glucose level and a blood insulin concentration were measured. The db/db mice were divided into three groups (10 mice per each group) so that a body weight, a 24 hour-food intake amount, a blood glucose level, and a blood insulin concentration were equal, and defined to be a control group, a low concentration baclofen treated group, and a high concentration baclofen treated group. After division into the groups, from day 5 after the start of feeding, (±)-baclofen was dissolved in drinking water and 5 week-continuous oral administration to the baclofen treated groups was started. (±)-baclofen was dissolved in drinking water at a concentration of 1.1 mg/dl in the low concentration treated group and at a concentration of 2.7 mg/dl in the high concentration treated group. A food intake amount and a body weight were measured over time during the period of 5 week-administration of (±)-baclofen, blood was taken after the end of the 5-week administration, and the db/db mice were sacrificed by cervical luxation. Brains, epididymal white adipose tissues, subcutaneous white adipose tissues and brown adipose tissues were surgically removed. The brains and brown adipose tissues were frozen in dry ice and liquid nitrogen immediately after the removal and then preserved at −80° C. The epididymal white adipose tissues and subcutaneous white adipose tissues were measured in weights, and then fixed in 4% formaldehyde and preserved at 4° C. […]"}, "[2]": {"system": "lean mice", "experiment": "Food intake amount and body weight, 5 week-continuous oral administration, non-obese lean mice", "type": "in vivo, mouse", "settings": "lean mice (normal diet); oral 5 weeks; (±)-baclofen 5 mg/kg/day, SKF97541 0.3 mg/kg/day, 3-APPA 5 mg/kg/day", "procedure": "5 week-old male C57BL/6N mice (body weight 17 to 20 g, CLEA Japan, Inc.) were purchased and individually fed in tip cages. To the mice, normal pellet diet (CE-2) was administered under free water intake and free food intake. A body weight and a food intake amount over 24 hours were measured every day from the start of feeding. On day 3 after the start of feeding, blood was taken from an orbit after 6 hour-fasting and a blood glucose level and a blood insulin concentration were measured. The mice were divided into a control group and a baclofen treated group (10 mice per each group) so that a body weight, a 24 hour-food intake amount, a blood glucose level, and a blood insulin concentration were equal, and diet induced-obesity (DIO) was started to be induced by administration of high fat diet (High Fat Diet 32, energy fat ratio 60%, CLEA Japan, Inc.) (DIO mice). At the same time as the start of administering the high fat diet, (±)-baclofen was dissolved in drinking water and 5 week-continuous oral administration was started in a dosage of 5 mg per 1 kg of a body weight in 1 day (5 mg/kg/day). A food intake amount and a body weight were measured over time during the 5 week-administration period. (±)-baclofen (5 mg/kg/day) was orally administered also to C57BL/6N mice (lean mice) that are non-obese mice to which normal diet was administered in the same manner as described above, and a food intake amount and a body weight were measured over time.\n5 week-old male C57BL/6N mice (body weight 17 to 20 g, CLEA Japan, Inc.) were purchased and individually fed in tip cages. Normal pellet diet (CE-2) was administered to the mice under free water intake and free food intake. A body weight and a food intake amount over 24 hours were measured every day from the start of feeding. On day 3 after the start of feeding, blood was taken from an orbit after 6 hour-fasting and a blood glucose level and a blood insulin concentration were measured. The mice were divided into a control group, an SKF97541 treated group and a 3-APPA treated group (10 mice per each group) so that a body weight, a 24 hour-food intake amount, a blood glucose level, and a blood insulin concentration were equal, and diet induced-obesity (DIO) was started to be induced by administration of high fat diet (High Fat Diet 32, energy fat ratio 60%, CLEA Japan, Inc.) (DIO mice). At the same time as the start of administering the high fat diet, SKF97541 (0.3 mg/kg/day) or 3-APPA (5 mg/kg/day) was dissolved in drinking water and 5 week-continuous oral administration was started. A food intake amount and a body weight were measured over time during the 5 week-administration period. SKF97541 (0.3 mg/kg/day) or 3-APPA (5 mg/kg/day) was orally administered also to C57BL/6N mice (lean mice) to which normal diet was administered in the same manner as described above, and a food intake amount and a body weight were measured over time."}}, "data": [{"smiles": "NCC(CC(=O)O)c1ccc(Cl)cc1", "note": "(racemic) [(±)-baclofen, (RS)-4-amino-3-(4-chlorophenyl)butanoic acid]", "values": [{"measurement": "size of a fat cell (epididymal white adipose tissue, H-E stain)", "setting": "[1]", "value": "decreases"}, {"measurement": "weight of epididymal white adipose tissues", "setting": "[1]", "value": "Significant decreases"}, {"measurement": "weight of subcutaneous white adipose tissue", "setting": "[1]", "value": "no significant decrease"}, {"measurement": "body weight", "setting": "[2]", "value": "did not give significant effects"}, {"measurement": "food intake amount", "setting": "[2]", "value": "did not give significant effects"}]}]}
